Assay results from PubChem BioAssay (NCI).
“And” between values parts separate entries of the source, which are not always exact repeats. Equal entries are not always repeated.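 Grown in 96-well plates, cells were treated for 48 hours with each compound at five concentrations. Insufficient inhibition: endpoint recorded as highest concentration tested. Abbreviation: GI50, concentration required for 50% inhibition of growth. TGI: concentration producing complete growth inhibition.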

Key:
Assay in all cases: NCI-60 cell line screen, 48 h
NCI/ADR-RES ovarian = system: NCI/ADR-RES ovarian
HS 578T breast = system: HS 578T breast
MCF7 breast = system: MCF7 breast
MDA-MB-231 breast = system: MDA-MB-231 breast
DU-145 prostate = system: DU-145 prostate
DMS 114 small cell lung = system: DMS 114 small cell lung
M19-MEL melanoma = system: M19-MEL melanoma
SNB-78 CNS = system: SNB-78 CNS
LXFL 529 NSCLC = system: LXFL 529 NSCLC
KM20L2 colon = system: KM20L2 colon

Compound | GI50 (NCI/ADR-RES ovarian) | TGI (NCI/ADR-RES ovarian) | GI50 (HS 578T breast) | TGI (HS 578T breast) | GI50 (MCF7 breast) | TGI (MCF7 breast) | GI50 (MDA-MB-231 breast) | TGI (MDA-MB-231 breast) | GI50 (DU-145 prostate) | TGI (DU-145 prostate) | TGI (DMS 114 small cell lung) | TGI (M19-MEL melanoma) | TGI (SNB-78 CNS) | TGI (LXFL 529 NSCLC) | TGI (KM20L2 colon)
CCC(CO)Nc1nc2ccc(Cl)cc2c2ccccc12 (stereo not given) | 5.95 µM | 21.4 µM | 8.82 µM | 34.9 µM | 12.2 µM | 26.1 µM | 4.9 µM | 15.9 µM | 12.8 µM | 25.4 µM |  |  |  |  | 
COc1ccc2c(c1)/C(=C/c1c(C)nc3sc(C)nn13)C(=O)N2 | 1.83 µM | 13.6 µM | 5.16 µM | > 68.3 µM | 1.61 µM | > 100 µM | 7.59 µM | > 100 µM | 6.11 µM | > 100 µM |  |  |  |  | 
CSc1nc2c(c(=O)[nH]1)N=C1c3ccccc3C(=O)C1C(c1ccccc1)N2 (stereo not given) | 4.54 µM | 32.1 µM | 2.1 µM | 7.18 µM | 2.4 µM | > 100 µM | 4.09 µM | > 100 µM | 13.4 µM | > 100 µM |  |  |  |  | 
Cn1c2ccccc2c2c(Nc3ccccc3)c3ccccc3nc21 | 54.1 µM | > 100 µM | 18.2 µM | 60 µM | 5.29 µM | 25.4 µM | 2.75 µM | 22.9 µM | 9.35 µM | 50.4 µM |  |  |  |  | 
Nc1ccccc1SC(C[N+](=O)[O-])c1ccc2c(c1)OCO2 (stereo not given) |  | 73 µM |  | 36.8 µM |  | 12.4 µM |  | 20 µM |  | 8.77 µM |  |  |  |  | 
CCN(CCO)CC1CCCC2CCCCC21 (stereo not given) |  | > 100 µM |  | > 100 µM |  | > 100 µM |  | > 100 µM |  | > 100 µM |  |  |  |  | 
Cc1ccc(C(=O)/C(=C/c2ccc([N+](=O)[O-])cc2)SCc2ccc(Cl)cc2)cc1 | 2.06 µM | 6.81 µM | 2.14 µM | 6.96 µM | 0.375 µM | 3.08 µM | 1.96 µM | 5.8 µM | 5.33 µM | > 100 µM |  |  |  |  | 
NC(Cc1c[nH]c2c(O)cccc12)C(=O)O (stereo not given) | > 100 µM | > 100 µM |  |  | > 100 µM | > 100 µM | > 100 µM | > 100 µM | > 100 µM | > 100 µM |  |  |  |  | 
NC(=O)c1cccc2cn(-c3ccc([C@@H]4CCCNC4)cc3)nc12 | 19.5 µM | > 74.5 µM | 21.5 µM | 76.7 µM | 6.59 µM | 23.9 µM | 11.7 µM | 31.2 µM | 8.97 µM | 21.9 µM |  |  |  |  | 
COc1cc(/C=N/NC(=O)c2ccc(C(F)(F)F)nc2Nc2ccc(Cl)cc2C)ccc1O | 2.66 µM | 9.97 µM | 3.53 µM | 16.5 µM | 2.02 µM | 11.6 µM | 0.939 µM | 10.3 µM | 4.27 µM | 16.3 µM |  |  |  |  | 
Cc1ccc(NC2=C(Cl)C(=O)N(Cc3ccccc3)C2=O)cc1O | 30.8 µM | > 100 µM | 25.9 µM | 83.4 µM | 32.2 µM | > 100 µM | 21 µM | 61.5 µM | 60.1 µM | > 100 µM |  |  |  |  | 
O=C(O)CSc1ccc([N+](=O)[O-])cc1[N+](=O)[O-] |  | > 100 µM |  | > 100 µM |  | > 100 µM |  | > 100 µM |  | > 100 µM |  |  |  |  | 
CCCCCN(CCCCC)CC(O)c1cc(C)c2ccc3cc(C(C)C)ccc3c2c1 (stereo not given) | 2.16 µM | 4.61 µM | 1.93 µM | 4.65 µM | 1.75 µM | 3.48 µM | 1.79 µM | 3.77 µM | 1.89 µM | 3.37 µM |  |  |  |  | 
Cc1nc2ccccc2c(=O)n1-c1ccccc1I |  |  |  |  |  |  |  |  |  |  | > 100 µM | > 100 µM | > 100 µM | > 100 µM | 
CC12CCC(O)CC1CCC1C2CCC2(C)C(C3=CC(=O)OC3)CCC12O (stereo not given) |  | 5.77 µM |  | > 100 µM |  |  |  | > 100 µM |  | 2.85 µM |  |  |  |  | 
OCc1ccc(N2CCC2c2ccc(F)cc2)cc1Cl (stereo not given) | 23.7 µM | > 88.8 µM | 26.7 µM | > 86.8 µM | 0.69 µM | 24.5 µM | 22.6 µM | > 68.3 µM | 35.8 µM | > 100 µM |  |  |  |  | 
NNC(=O)Nc1cccnc1 |  | > 100 µM |  |  |  | > 100 µM |  | > 100 µM |  | > 100 µM |  |  |  |  | 
COC1CCC(N2C(=O)CNc3ncc(-c4ccc(C(C)(C)O)nc4)nc32)CC1 (stereo not given) | 1.64 µM and 0.435 µM | > 100 µM | 0.407 µM and 0.137 µM | 3.68 µM and 0.624 µM | 0.305 µM and 0.127 µM | > 10 µM and 12.6 µM | 0.52 µM and 0.283 µM | 4.8 µM and 25.3 µM | 1.42 µM and 0.459 µM | > 38 µM |  |  |  |  | 
O=C1C=C(Cl)C(=O)C(c2ccc(Cl)cc2)=C1 |  | 79 µM |  | 74.9 µM |  | 41.6 µM |  | 36 µM |  | 46.5 µM |  |  |  |  | 
CN/N=C(/Cc1occc(=O)c1O)C(=O)Nc1ccccc1C |  |  |  |  |  |  |  |  |  |  | > 100 µM | > 100 µM | > 100 µM | > 100 µM | > 100 µM
COc1ccc(C(=O)Cn2c(C(=O)c3ccccc3)nc(-c3ccc(OC)cc3)c2-c2ccc(OC)cc2)cc1 | > 100 µM | > 100 µM | 45.6 µM | > 100 µM | > 100 µM | > 100 µM | 64.3 µM | > 100 µM | > 100 µM | > 100 µM |  |  |  |  | 
O=C1CC(c2ccc3c(c2)OCO3)Nc2ccccc21 (stereo not given) | 11.8 µM | 39.9 µM | 17.8 µM | 77 µM | 4.96 µM | 36.7 µM | 8.06 µM | 36.5 µM | 3.1 µM | 12.6 µM |  |  |  |  | 
CC/C=C\CCC/C=C1/C(=O)C=C[C@@H]1C/C=C\CCCC(=O)OC | 3.45 µM | 18 µM | 10.6 µM | 53.3 µM | 2.69 µM | 13.9 µM | 4.23 µM | 14.9 µM | 8.67 µM | 21.1 µM |  |  |  |  | 
Cc1cc(I)cc(CN(C)CCCCN2CCCCC2)c1O | 19.5 µM | 73.2 µM | 8.9 µM | 23.5 µM | 13.6 µM | 30 µM | 16.3 µM | 43 µM | 26.8 µM | > 100 µM |  |  |  |  | 
